Patent US20250213705A1, “PSMA TARGETING LIGANDS AND METHODS OF USE” (Bright Peak Therapeutics AG, priority 2023, published 2025)

How the values were obtained:
[1] = target: Recombinant Human PSMA/FOLH1 Protein (Homo sapiens (Human), UniProt Q04609); test: Inhibition assay (Amplex Red glutamic acid/glutamate oxidase, NAAG substrate); format: biochemical; details: Target PSMA, average of N replicates; for IC50: PSMA 5 nM, NAAG 40 μM; for Ki: calculated based on Cheng-Prusoff equation
Procedure: Amplex™ Red Glutamic Acid/Glutamate Oxidase Assay Kit Catalog number: A12221 (Thermofisher); Recombinant Human PSMA/FOLH1 Protein, CF (rnd systems); N-Acetyl-Asp-Glu (NAAG) (Sigma Aldrich; 96 well half area plate; Enspire plate reader.
Prepare a working solution of 100 μM Amplex® Red reagent containing 0.25 U/mL HRP, 0.08 U/mL L-glutamate oxidase, 0.5 U/mL 1-glutamate-pyruvate transaminase, 200 μM L-alanine and keep protected from light. […] Final concentration is 5 nM. Transfer 10 μl/well of the inhibitor solution previously prepared in a separate 96 wells/plate.
Pipette 20 μl/well of the working solution prepared above. Incubate the reactions for 30 min at 37° C., protected from light. Because the assay is continuous (not terminated), fluorescence may be measured at multiple time points to follow the kinetics of the reactions. Measure the fluorescence in a fluorescence microplate reader using excitation in the range of 530-560 nm and emission detection at ˜590 nm. Ec50s were determined with GraphPad Prism. Ki is calculated based on Cheng-Prusoff equation.

human FOLH1 = human FOLH1 (Homo sapiens (Human), UniProt Q04609); test: SPR analysis of binding kinetics to biotinylated FOLH1 (Biacore 8K); details: ligand PSMA; for Kon: association rate; for koff: dissociation rate; for Kd: kinetic 1:1 binding model
Procedure: The interaction of PSMA-binding variants with human FOLH1 was measured with Surface Plasmon Resonance (SPR) technology. Biotinylated FOLH1 was captured at a concentration of 30 μg/mL onto a Streptavidin chip.
Binding kinetics of the analytes were measured with a Biacore 8K instrument in two-fold serial dilutions starting at 500 nM down to 1.95 nM in single cycle kinetic measurements. After each cycle, needles were washed with 50% DMSO. To measure the association to the FOLH1 protein, the samples were injected with a flow rate of 30 μL/min for 90 s, followed by 1200 s buffer only to detect the dissociation. The used running buffer was 1×PBS with 0.05% Tween20 and 2% DMSO. The relative response units (RU, Y-axis) are plotted against time (s, X-axis) and analyzed in a kinetic 1:1 binding model.
In a different setup, biotinylated FOLH1 was captured at a concentration of 0.8 μg/mL and the running buffer was 1×PBS with 0.05% Tween20.

Chain of human FOLH1 (Q04609 whole entry): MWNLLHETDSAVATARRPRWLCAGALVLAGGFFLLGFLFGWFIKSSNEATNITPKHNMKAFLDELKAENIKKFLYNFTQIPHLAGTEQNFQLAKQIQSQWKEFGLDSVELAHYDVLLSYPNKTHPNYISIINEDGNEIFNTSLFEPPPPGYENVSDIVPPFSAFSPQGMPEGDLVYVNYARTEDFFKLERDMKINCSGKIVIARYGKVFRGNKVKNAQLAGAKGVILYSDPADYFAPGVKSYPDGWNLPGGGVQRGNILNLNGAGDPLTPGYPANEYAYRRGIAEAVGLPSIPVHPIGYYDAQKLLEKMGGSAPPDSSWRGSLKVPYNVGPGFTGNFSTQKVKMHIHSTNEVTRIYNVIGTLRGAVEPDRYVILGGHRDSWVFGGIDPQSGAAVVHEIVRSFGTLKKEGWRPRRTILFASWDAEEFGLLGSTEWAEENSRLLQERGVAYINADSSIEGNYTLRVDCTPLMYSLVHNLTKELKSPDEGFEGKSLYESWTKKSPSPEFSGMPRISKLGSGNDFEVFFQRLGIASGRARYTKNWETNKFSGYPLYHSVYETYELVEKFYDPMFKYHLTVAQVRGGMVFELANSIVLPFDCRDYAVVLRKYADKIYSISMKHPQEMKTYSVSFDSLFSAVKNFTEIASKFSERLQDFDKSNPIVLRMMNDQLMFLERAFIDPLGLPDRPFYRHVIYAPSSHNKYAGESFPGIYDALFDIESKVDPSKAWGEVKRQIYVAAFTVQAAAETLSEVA
Chain of Recombinant Human PSMA/FOLH1 Protein (Q04609 whole entry): as above

**Q.** Which IC50 [1] does the source give for `CC(=O)NCCOCCOCCOCCC(=O)NC[C@H]1CC[C@H](C(=O)N[C@@H](Cc2c[nH]c3ccccc23)C(=O)NCCCC[C@H](NC(=O)N[C@@H](CCC(=O)O)C(=O)O)C(=O)O)CC1` (stereo in doubt) [Compound 2] here?
**A.** The IC50 was 25.1 nM.

**Q.** What about the Ki [1] of the same compound?
**A.** The Ki was 0.18 nM.

**Q.** And the Kon (human FOLH1)?
**A.** Its Kon is 158000 1.ms.

**Q.** What about the koff (human FOLH1) of the same compound?
**A.** Its koff is 3.3e-05 s⁻¹.

**Q.** And the Kd (human FOLH1)?
**A.** Its Kd is 0.208 nM.

**Q.** `CC(=O)NCCOCCOCCOCCC(=O)N[C@@H]1C[C@@H](C(=O)N[C@@H](Cc2ccc3ccccc3c2)C(=O)NCCCC[C@H](NC(=O)N[C@@H](CCC(=O)O)C(=O)O)C(=O)O)N(C(=O)CCCOc2cc(C#N)cc(C#N)c2)C1` (stereo in doubt) [Compound 82] was tested. Which IC50 [1] did it give?
**A.** Its IC50 is 1.8 nM.

**Q.** What about the Ki [1] of the same compound?
**A.** Its Ki is 0.0129 nM.

**Q.** What about the Kon (human FOLH1) of the same compound?
**A.** Its Kon is 72200 1.ms.

**Q.** What about the koff (human FOLH1) of the same compound?
**A.** Its koff is 0.000381 s⁻¹.

**Q.** And the Kd (human FOLH1)?
**A.** Its Kd is 5.27 nM.

**Q.** `CC(=O)NCCOCCOCCOCCC(=O)NC[C@H]1CC[C@H](C(=O)N[C@H](Cc2c[nH]c3ccccc23)C(=O)NCCCC[C@H](NC(=O)N[C@@H](CCC(=O)O)C(=O)O)C(=O)O)CC1` [Compound 5] was tested. Which IC50 [1] did it give?
**A.** Its IC50 is 81.7 nM.

**Q.** And the Ki [1]?
**A.** The Ki was 0.584 nM.

**Q.** What about the Kon (human FOLH1) of the same compound?
**A.** The Kon was 195000 1.ms.

**Q.** And the koff (human FOLH1)?
**A.** The koff was 0.000543 s⁻¹.

**Q.** And the Kd (human FOLH1)?
**A.** Its Kd is 2.78 nM.

**Q.** For `CC(=O)NCCOCCOCCOCCC(=O)NC[C@H]1CC[C@H](C(=O)N[C@@H](Cc2ccc(-c3ccccc3)cc2)C(=O)NCCCC[C@H](NC(=O)N[C@@H](CCC(=O)O)C(=O)O)C(=O)O)CC1` [Compound 7], which IC50 [1] is on record?
**A.** The IC50 was 171 nM.

**Q.** And the Ki [1]?
**A.** Its Ki is 1.23 nM.

**Q.** And the Kon (human FOLH1)?
**A.** The Kon was 293000 1.ms.

**Q.** What about the koff (human FOLH1) of the same compound?
**A.** The koff was 0.00167 s⁻¹.

**Q.** And the Kd (human FOLH1)?
**A.** The Kd was 5.72 nM.

**Q.** `CC(=O)NCCOCCOCCOCCC(=O)NC[C@H]1CC[C@H](C(=O)N[C@@H](Cc2cccc(C(=O)O)c2)C(=O)NCCCC[C@H](NC(=O)N[C@@H](CCC(=O)O)C(=O)O)C(=O)O)CC1` [Compound 10] was tested. Which IC50 [1] did it give?
**A.** Its IC50 is 21.3 nM.

**Q.** What about the Ki [1] of the same compound?
**A.** The Ki was 0.152 nM.

**Q.** What about the Kd (human FOLH1) of the same compound?
**A.** Its Kd is 2.02 nM.

**Q.** For `CC(=O)NCCOCCOCCOCCC(=O)NC[C@H]1CC[C@H](C(=O)N[C@@H](Cc2c[nH]c3ccc(F)cc23)C(=O)NCCCC[C@H](NC(=O)N[C@@H](CCC(=O)O)C(=O)O)C(=O)O)CC1` [Compound 12], which IC50 [1] is on record?
**A.** The IC50 was 41.5 nM.

**Q.** What about the Ki [1] of the same compound?
**A.** Its Ki is 0.297 nM.

**Q.** And the Kon (human FOLH1)?
**A.** Its Kon is 250000 1.ms.

**Q.** And the koff (human FOLH1)?
**A.** Its koff is 0.000142 s⁻¹.

**Q.** And the Kd (human FOLH1)?
**A.** The Kd was 0.568 nM.

**Q.** How did the IC50 [1] turn out when `CC(=O)NCCOCCOCCOCCC(=O)NC[C@H]1CC[C@H](C(=O)N[C@@H](Cc2ccc(N)cc2)C(=O)NCCCC[C@H](NC(=O)N[C@@H](CCC(=O)O)C(=O)O)C(=O)O)CC1` [Compound 14] was run?
**A.** The IC50 was 286 nM.

**Q.** What about the Ki [1] of the same compound?
**A.** Its Ki is 2.05 nM.

**Q.** What about the Kon (human FOLH1) of the same compound?
**A.** The Kon was 131000 1.ms.

**Q.** And the koff (human FOLH1)?
**A.** Its koff is 0.000618 s⁻¹.

**Q.** And the Kd (human FOLH1)?
**A.** The Kd was 4.71 nM.

**Q.** For `CC(=O)NCCOCCOCCOCCC(=O)N[C@@H]1C[C@@H](C(=O)N[C@@H](Cc2ccc3ccccc3c2)C(=O)NCCCC[C@H](NC(=O)N[C@@H](CCC(=O)O)C(=O)O)C(=O)O)N(C(=O)COc2cc(C#N)cc(C#N)c2)C1` [Compound 81], which Kon (human FOLH1) is on record?
**A.** Its Kon is 90000 1.ms.

**Q.** What about the koff (human FOLH1) of the same compound?
**A.** Its koff is 0.000371 s⁻¹.

**Q.** Which Kon (human FOLH1) does the source give for `CC(=O)NCCOCCOCCOCCC(=O)N(CCCOc1cc(C(F)(F)F)cc(C(F)(F)F)c1)CC(=O)N[C@@H](Cc1ccc2ccccc2c1)C(=O)NCCCC[C@H](NC(=O)N[C@@H](CCC(=O)O)C(=O)O)C(=O)O` [Compound 86] here?
**A.** Its Kon is 339000 1.ms.

**Q.** What about the koff (human FOLH1) of the same compound?
**A.** The koff was 0.000397 s⁻¹.

**Q.** With `CC(=O)NCCOCCOCCOCCC(=O)N1C[C@H](NC(=O)CCCOc2cc(C#N)cc(C#N)c2)C[C@H]1C(=O)NCC(=O)N[C@@H](Cc1ccc2ccccc2c1)C(=O)NCCCC[C@H](NC(=O)N[C@@H](CCC(=O)O)C(=O)O)C(=O)O` [Compound 91] as the compound, how does the Kon (human FOLH1) read?
**A.** Its Kon is 71500 1.ms.

**Q.** What about the koff (human FOLH1) of the same compound?
**A.** Its koff is 0.000258 s⁻¹.

**Q.** `CC(=O)NCCOCCOCCOCCC(=O)N[C@@H]1C[C@@H](C(=O)NCC(=O)N[C@@H](Cc2ccc3ccccc3c2)C(=O)NCCCC[C@H](NC(=O)N[C@@H](CCC(=O)O)C(=O)O)C(=O)O)N(C(=O)CCCOc2cc(C#N)cc(C#N)c2)C1` [Compound 92] was tested. Which Kon (human FOLH1) did it give?
**A.** The Kon was 297000 1.ms.

**Q.** And the koff (human FOLH1)?
**A.** The koff was 0.000301 s⁻¹.

**Q.** Which results are given for `CC(=O)NCCOCCOCCOCCC(=O)N[C@@H](Cc1ccc(C(=O)O)cc1)C(=O)NCC(=O)N[C@@H](Cc1ccc2ccccc2c1)C(=O)NCCCC[C@H](NC(=O)N[C@@H](CCC(=O)O)C(=O)O)C(=O)O` [Compound 94]?
**A.** Kon (human FOLH1): 112000 1.ms; koff (human FOLH1): 0.000261 s⁻¹
